According to PMC9051980 (Saudi Pharmaceutical Journal : SPJ, 2022):

Key:
[1] = tested on: cilia of the maxillary mucosa of toads; test: Mucosal irritation; set-up: species or system toad
[2] = In-vivo tissue distribution evaluation; conditions: both, C57BL/6N, mouse, po, 0.4 mg/mouse
[3] = Plasma pharmacokinetic evaluation; assay type: in vivo, C57BL/6N mice; conditions: both, C57BL/6N, mouse, po, 0.4 mg/mouse
[4] = Nasal perfusion method; assay type: in vivo, C57 mouse; conditions: at 60 min; 20 mL artificial nasal solution, 1 mg/mL, total dose 20 mg
[5] = In-vitro drug release; assay type: physicochemical; conditions: 34 °C, 200 rpm, artificial nasal fluid
[6] = tested on: plasma CORT; test: Plasma CORT level; assay type: in vivo, C57 mice; conditions: Day 19, compared with Healthy group
[7] = tested on: amygdala dopamine transporter (DAT); test: Immunohistochemistry of amygdala DAT; assay type: in vivo, C57 mice; conditions: Day 19, compared with Healthy group
[8] = tested on: PTSD mice; test: Freezing response test in fear-conditioning box; assay type: in vivo, C57 mice
[9] = tested on: PTSD mice; test: Open field test; assay type: in vivo, C57 mice
[10] = Day 17, five days after drug withdrawal, compared with Healthy group
[11] = Day 17, five days after drug withdrawal, compared with Model group
[12] = Day 12, compared with Model group

## C[C@H](CCC(=O)O)[C@H]1CC[C@H]2[C@@H]3CC[C@@H]4C[C@H](O)CC[C@]4(C)[C@H]3C[C@H](O)[C@]12C [Sodium Deoxycholate]
[1]; 100 μL on toad upper-jaw mucosa, armodafinil 20 mg/mL, sodium deoxycholate 1%
  PVD (persistent vibration duration of cilia): 136.67 ± 26.95 min
[1]; PVD compared with that of the saline group
  PPV (percentage of persistent vibration): 20.69%
[1]; maxillary mucosa of toads
  Ciliary structure / extent of damage of cilia under microscope: obviously prostrate or even exfoliated

## NC(=O)C[S@@+]([O-])C(c1ccccc1)c1ccccc1 [Armodafinil]
[2]; brain
  AUC(0-t): 1090 ng·h/mL
  Cmax: 259 ± 96 ng/mL
  Tmax: 30 min
[2]; liver
  AUC(0-t): 2380 ng·h/mL
  Cmax: 1150 ± 199 ng/mL
  Tmax: 30 min
[3]
  AUC(0-t): 9900 ± 5500 ng·h/mL
  Cmax: 3600 ± 2250 ng/mL
  Tmax: 15 min
[4]
  Mucosal absorptive amount of armodafinil: 2.50 mg
[5]
  Time at which the release was complete: 2 h
[5]; 20 mg/mL armodafinil
  Released armodafinil percentage when release was complete: 18.12 ± 1.03%

## CN[C@H]1CC[C@@H](c2ccc(Cl)c(Cl)c2)c2ccccc21 [Sertraline]
[6]
  Plasma CORT level: decreased
[7]
  DAT expression in amygdala (IOD): significantly increased
[8]; Day 11, compared with Healthy group
  Freezing time: longer freezing time
[8]; Day 11, fear-conditioning box, compared with Healthy group
  Total active distances: shorter total active distances
[8]; Day 11, fear-conditioning box, compared with Model group
  Total active distances: longer total active distances
[8]; [10]
  Freezing time: longer freezing time
  Total active distances: shorter total active distances
[8]; [11]
  Freezing time: shorter freezing time
  Total active distances: longer total active distances
[9]; Day 12, compared with Healthy group
  Open field test indicators: fewer crossing times
[9]; [12]
  Active distances in the center of thigmotaxis area: more active distances in the center of thigmotaxis area
  Crossings in the center of thigmotaxis area: more crossings in the center of thigmotaxis area
[9]; Day 12, open field, compared with Model group
  Total active distances: more total active distances
[9]; Day 18, after drug withdrawal, compared with Healthy group
  Crossings and active distances in the center of thigmotaxis area: fewer crossings and active distances in the center of thigmotaxis area
[9]; Day 18, after drug withdrawal, compared with Model group
  Crossing of the center of thigmotaxis area: more frequently
[9]; Day 18, open field, after drug withdrawal, compared with Healthy group
  Total active distances: fewer total active distances
[9]; Day 18, open field, after drug withdrawal, compared with Model group
  Total active distances: increased
